Data from patent US12558428B2, “Heterobifunctional compounds and their use in treating disease” (Halda Therapeutics OpCo, Inc., priority 2024, dated 2026).
Where two headings read alike, the source gives them in different places.

Assays:
Format in all cases: cell-based
[1] = test system: T-Rex 293 cells having increased expression of estrogen receptor alpha protein; assay: Cellular growth inhibition assay, T-Rex 293 cells, (+) doxycycline; conditions: Table 7-A, T-Rex 293 cells with doxycycline (increased ERα expression), 72 hours, CellTiter-Glo, read-out: (+) Dox GI50
Method in brief: (§1)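 Cells of an inducible ERα-expressing T-Rex 293 clone are seeded in charcoal-dextran FBS medium with or without 3 ng/mL doxycycline, then treated after 24 h with compound dilutions (0.5% DMSO) for 72 h. Growth inhibition is measured by CellTiter-Glo luminescence and expressed as GI50.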

[2] = test system: T-Rex 293 cells lacking increased expression of estrogen receptor alpha protein; assay: Cellular growth inhibition assay, T-Rex 293 cells, (−) doxycycline; conditions: Table 7-A, T-Rex 293 cells without doxycycline (lacking increased ERα expression), 72 hours, CellTiter-Glo, read-out: (−) Dox GI50
Method in brief: as §1

[3] = test system: MCF7 cells (ATCC #HTB-22); assay: Cellular growth inhibition assay, MCF7 cells purchased from ATCC; conditions: Table 8-A, MCF7 cells purchased from ATCC, six days, CellTiter-Glo, read-out: GI50
Method in brief: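 GI50 values come from a four-parameter fit of CellTiter-Glo 2.0 luminescence after six days of compound exposure at 37° C. Seeding density depended on the source: 225 cells/well for ECACC MCF7, 1,500 for ATCC. Medium was RPMI 1640 with 10% FBS and 0.2 U/ml insulin.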

SMILES	GI50 ([1]; T-REx-293, 72 h) [nM]	GI50 ([2]; T-REx-293, 72 h) [nM]	GI50 ([3]; Homo sapiens, MCF7, 144 h) [nM]	GI50 [1] [nM]	GI50 [2] [nM]	GI50 [3] [nM]
Cc1sc2c(c1C)C(c1ccc(N3CCC(O)(CN4CCN(c5ccc([C@H]6c7ccc(C(=O)O)cc7CC[C@H]6c6ccc(F)cc6F)cc5)CC4)CC3)cc1)=N[C@@H](C)c1nnc(C)n1-2 [III-205]	50 to 500	500 to 2500	50 to 500			
Cc1sc2c(c1C)C(c1ccc(N3CC4(CCC(O)(CN5CCC(c6ccc([C@@H]7c8ccc(O)cc8CC[C@@H]7c7ccccc7)cc6)CC5)CC4)C3)cc1)=N[C@@H](C)c1nnc(C)n1-2 [III-206]	< 50	500 to 2500	< 50			
Cc1sc2c(c1C)C(c1ccc(N3CCC(O)(CN4CCN(c5ccc([C@H]6c7ccc(O)cc7CC[C@H]6c6ccc(F)cc6)cc5)CC4)CC3)cc1)=N[C@H](Cc1ncco1)c1nnc(C)n1-2 [III-207]	> 2500	> 2500	500 to 2500			
Cc1sc2c(c1C)C(c1ccc(N3CCC(O)(CN4CCN(c5ccc([C@@H]6c7ccc(O)cc7CC[C@@H]6c6ccc(F)cc6)cc5)CC4)CC3)cc1)=N[C@H](Cc1ncco1)c1nnc(C)n1-2 [III-208]	> 2500	> 2500	500 to 2500			
Cc1sc2c(c1C)C(c1ccc(N3CCC(O)(CN4CCN(c5ccc([C@H]6c7ccc(O)cc7CC[C@H]6c6ccc(F)cc6)cc5)CC4)CC3)cc1)=N[C@@H](Cc1ncco1)c1nnc(C)n1-2 [III-209]	< 50	50 to 500	50 to 500			
Cc1sc2c(c1C)C(c1ccc(N3CCC(O)(CN4CCN(c5ccc([C@@H]6c7ccc(O)cc7CC[C@@H]6c6ccc(F)cc6)cc5)CC4)CC3)cc1)=N[C@@H](Cc1ncco1)c1nnc(C)n1-2 [III-210]	< 50	50 to 500	< 50			
Cc1sc2c(c1C)C(c1ccc(N3CC4(CCC(O)(CN5CCC(c6ccc([C@@H]7c8ccc(O)cc8CC[C@@H]7c7ccccc7)cc6)CC5)CC4)C3)cc1)=N[C@@H](Cc1ncco1)c1nnc(C)n1-2 [III-211]	< 50	50 to 500	< 50			
Cc1sc2c(c1C)C(c1ccc(N3CC(CN4CCC(F)(CC5CN(c6ccc([C@@H]7c8ccc(O)cc8CC[C@@H]7c7ccccc7)cc6)C5)CC4)C3)cc1)=N[C@@H](C)c1nnc(C)n1-2 [III-212]	< 50	50 to 500	< 50			
Cc1sc2c(c1C)C(c1ccc(N3CCC(O)(CN4CCN(c5ccc([C@H]6c7ccc(C(=O)O)cc7CC[C@H]6c6ccc(F)cc6F)cc5)CC4)CC3)cc1)=NC(Cc1ncco1)c1nnc(C)n1-2 (stereo partly drawn) [III-213]	> 2500	> 2500	> 2500			
Cc1sc2c(c1C)C(c1ccc(N3CCC(O)(CN4CCN(c5ccc([C@@H]6c7ccc(C(=O)O)cc7CC[C@@H]6c6ccc(F)cc6F)cc5)CC4)CC3)cc1)=NC(Cc1ncco1)c1nnc(C)n1-2 (stereo partly drawn) [III-214]	< 50	50 to 500	< 50			
Cc1sc2c(c1C)C(c1ccc(N3CCN(CC4CCN(c5ccc([C@@H]6c7ccc(O)cc7CC[C@@H]6c6ccccc6)cc5)CC4)CC3)cc1)=N[C@@H](Cn1cccn1)c1nnc(C)n1-2 [III-215]	< 50	> 2500	< 50			
Cc1sc2c(c1C)C(c1ccc(N3CCN(CC4CCN(c5ccc([C@@H]6c7ccc(O)cc7CC[C@@H]6c6ccccc6)cc5)CC4)CC3)cc1)=N[C@H](Cn1cccn1)c1nnc(C)n1-2 [III-216]	> 2500	> 2500	50 to 500			
Cc1sc2c(c1C)C(c1ccc(N3CCC(O)(CN4CCN(c5ccc([C@@H]6c7ccc(O)cc7CC[C@@H]6c6ccccc6)nn5)CC4)CC3)cc1)=N[C@@H](C)c1nnc(C)n1-2 [III-217]	< 50	50 to 500	50 to 500			
Cc1sc2c(c1C)C(c1ccc(N3CCC(O)(CN4CCN(c5ccc([C@H]6c7ccc(O)cc7CC[C@H]6c6ccccc6)nn5)CC4)CC3)cc1)=N[C@@H](C)c1nnc(C)n1-2 [III-218]	< 50	50 to 500	50 to 500			
Cc1sc2c(c1C)C(c1ccc(N3CC(CN4CC(CN5CC(c6ccc([C@@H]7c8ccc(O)cc8CC[C@@H]7c7ccccc7)cc6)C5)C4)C3)cc1)=N[C@@H](C)c1nnc(C)n1-2 [III-219]	< 50	50 to 500	50 to 500			
Cc1sc2c(c1C)C(c1ccc(N3CC(CN4CC(CC5CN(c6ccc([C@@H]7c8ccc(O)cc8CC[C@@H]7c7ccccc7)cc6)C5)C4)C3)cc1)=N[C@@H](C)c1nnc(C)n1-2 [III-220]	< 50	50 to 500	50 to 500			
Cc1sc2c(c1C)C(c1ccc(N3CC(CN4CC(CC5CN(c6ccc([C@@H]7c8ccc(O)cc8CC[C@@H]7c7ccccc7)cc6)C5)C4)C3)cc1)=N[C@@H](C)c1nnc(C)n1-2 [III-221]				< 50	50 to 500	< 50

SMILES	GI50 ([1]; T-REx-293, 72 h) [nM]	GI50 ([2]; T-REx-293, 72 h) [nM]	GI50 ([3]; Homo sapiens, MCF7, 144 h) [nM]	GI50 [1] [nM]	GI50 [2] [nM]	GI50 [3] [nM]
Cc1sc2c(c1C)C(c1ccc(N3CC4(CCC(F)(CN5CCC(c6ccc([C@@H]7c8ccc(O)cc8CC[C@@H]7c7ccccc7)cc6)CC5)CC4)C3)cc1)=N[C@@H](C)c1nnc(C)n1-2 [III-222]	< 50	> 2500	50 to 500			
Cc1sc2c(c1C)C(c1ccc(N3CCC(O)(CN4CCN(c5ccc([C@@H]6c7ccc(O)cc7CC[C@@H]6c6ccccc6)nn5)CC4)CC3)cc1)=N[C@H](Cc1ncco1)c1nnc(C)n1-2 [III-223]	500 to 2500	500 to 2500	500 to 2500			
Cc1sc2c(c1C)C(c1ccc(N3CCC(O)(CN4CCN(c5ccc([C@H]6c7ccc(O)cc7CC[C@H]6c6ccccc6)nn5)CC4)CC3)cc1)=N[C@H](Cc1ncco1)c1nnc(C)n1-2 [III-224]	> 2500	> 2500	50 to 500			
Cc1sc2c(c1C)C(c1ccc(N3CCC(O)(CN4CCN(c5ccc([C@H]6c7ccc(O)cc7CC[C@H]6c6ccccc6)nn5)CC4)CC3)cc1)=N[C@@H](Cc1ncco1)c1nnc(C)n1-2 [III-225]	< 50	50 to 500	50 to 500			
Cc1sc2c(c1C)C(c1ccc(N3CCC(O)(CN4CCN(c5ccc([C@@H]6c7ccc(O)cc7CC[C@@H]6c6ccccc6)nn5)CC4)CC3)cc1)=N[C@@H](Cc1ncco1)c1nnc(C)n1-2 [III-226]	< 50	50 to 500	< 50			
Cc1sc2c(c1C)C(c1ccc(N3CC4(CCC(F)(CN5CCC(c6ccc([C@@H]7c8ccc(O)cc8CC[C@@H]7c7ccccc7)cc6)CC5)CC4)C3)cc1)=N[C@@H](Cc1ncco1)c1nnc(C)n1-2 [III-227]	< 50	> 2500	50 to 500			
Cc1sc2c(c1C)C(c1ccc(C3CCC4(CCN(CN5CC(c6ccc([C@@H]7c8ccc(O)cc8CC[C@@H]7c7ccccc7)cc6)C5)CC4)C3)cc1)=N[C@@H](C)c1nnc(C)n1-2 (stereo partly drawn) [III-228]	< 50	500 to 2500	50 to 500			
Cc1sc2c(c1C)C(c1ccc(N3CC4(CCC(CN5CCC(c6ccc([C@@H]7c8ccc(O)cc8CC[C@@H]7c7ccccc7)cc6)CC5)CC4)C3)cc1)=N[C@@H](C)c1nnc(C)n1-2 [III-229]	< 50	500 to 2500	50 to 500			
Cc1sc2c(c1C)C(c1ccc(N3CC4(CCC(CN5CCN(c6ccc([C@@H]7c8ccc(O)cc8CC[C@@H]7c7ccccc7)cc6)CC5)CC4)C3)cc1)=N[C@@H](C)c1nnc(C)n1-2 [III-230]	< 50	> 2500	50 to 500			
Cc1sc2c(c1C)C(c1ccc(N3CCN(CC4CCN(c5ccc([C@@H]6c7ccc(O)cc7CC[C@@H]6c6ccccc6)cc5)CC4)CC3)cc1)=N[C@H](Cc1nccs1)c1nnc(C)n1-2 [III-231]	> 2500	> 2500	500 to 2500			
Cc1sc2c(c1C)C(c1ccc(N3CCN(CC4CCN(c5ccc([C@@H]6c7ccc(O)cc7CC[C@@H]6c6ccccc6)cc5)CC4)CC3)cc1)=N[C@@H](Cc1nccs1)c1nnc(C)n1-2 [III-232]	< 50	> 2500	< 50			
Cc1sc2c(c1C)C(c1ccc(N3CC(C[C@H]4CC[C@H](CN5CC(c6ccc([C@@H]7c8ccc(O)cc8CC[C@@H]7c7ccccc7)cc6)C5)CC4)C3)cc1)=N[C@@H](C)c1nnc(C)n1-2 [III-233]	< 50	500 to 2500	50 to 500			
Cc1sc2c(c1C)C(c1ccc(C3CN(C[C@H]4CC[C@H](CN5CC(c6ccc([C@@H]7c8ccc(O)cc8CC[C@@H]7c7ccccc7)cc6)C5)CC4)C3)cc1)=N[C@@H](C)c1nnc(C)n1-2 [III-234]	< 50	500 to 2500	50 to 500			
Cc1sc2c(c1C)C(c1ccc(N3CC(CC4(O)CCN(CC5CN(c6ccc([C@@H]7c8ccc(O)cc8CC[C@@H]7c7ccccc7)cc6)C5)CC4)C3)cc1)=N[C@@H](C)c1nnc(C)n1-2 [III-235]	< 50	500 to 2500	< 50			
Cc1sc2c(c1C)C(c1ccc(N3CCC(O)(CN4CCN(c5cc(F)c([C@@H]6c7ccc(O)cc7CC[C@@H]6c6ccc(F)cc6)c(F)c5)CC4)CC3)cc1)=N[C@@H](C)c1nnc(C)n1-2 [III-236]	< 50	500 to 2500	< 50			
Cc1sc2c(c1C)C(c1ccc(N3CCC(O)(CN4CCN(c5cc(F)c([C@H]6c7ccc(O)cc7CC[C@H]6c6ccc(F)cc6)c(F)c5)CC4)CC3)cc1)=N[C@@H](C)c1nnc(C)n1-2 [III-237]	50 to 500	500 to 2500	50 to 500			
